The source of these data is patent US20130267551A1, “SUBSTITUTED HYDROGENATED THIENO-PYRROLO[3,2-C]PYRIDINE, LIGANDS, A PHARMACEUTICAL COMPOSITION AND A METHOD FOR USING THE ABOVE” (ALLA CHEM, LLC, priority 2010, published 2013).

Structures can show the parent of a compound that is named as a salt. Where two headings read alike, the source gives them in different places.

Experiment [1] concerns Adrenergic α1B. The experiment in a line: competitive radioligand binding, Adrenergic α1B. Particulars: compound concentration of 1 μM. The procedure:
(§1) Profiles of pharmacological activity of thieno-pyrrolo[3,2-c]pyridines of the general formula 1. Biological activity test of compounds of the general formula 1 was carried out in the setting of competitive radioligand binding [I. Okun, S. Tkachenko, A. Khvat, et al., Current Alzheimer Research, 7(2), 97-112 (2010)], using a wide range of therapeutic targets including G-protein coupled receptors (GPCR), ion channels and neuromediator transporters. The tested activity was determined by quantitative measurement of radio-labelled ligand displacement by tested compounds of the general formula 1 at their concentration of 1 μM.

In experiment [2] the target is Histaminergic H2 (Homo sapiens, UniProt P25021). The experiment in a line: competitive radioligand binding, Histaminergic H2. Particulars: compound concentration of 1 μM; read-out: radio-labelled ligand displacement, Histaminergic H2. How it is done:
as §1

Experiment [3] has as its target Dopaminergic D2S (Homo sapiens, UniProt P14416). The experiment in a line: competitive radioligand binding, Dopaminergic D2S. Conditions: compound concentration of 1 μM; read-out: radio-labelled ligand displacement, Dopaminergic D2S. How it is done:
as §1

Experiment [4] concerns Therapeutic targets (Adrenergic, Dopaminergic, Histaminergic, Serotoninergic). The experiment in a line: Profiles of pharmacological activity in competitive radioligand binding (whole panel). Conditions: 1 μM, grades not defined. The procedure:
as §1

In experiment [5] the target is Serotoninergic 5-HT2B (Homo sapiens, UniProt P41595). Put plainly: competitive radioligand binding, Serotoninergic 5-HT2B. Conditions: read-out: radio-labelled ligand displacement, Serotoninergic 5-HT2B. How it is done:
as §1

The target of experiment [6] is Serotoninergic 5-HT6 (Homo sapiens, UniProt P50406). The experiment in a line: competitive radioligand binding, Serotoninergic 5-HT6. Conditions: compound concentration of 1 μM; read-out: radio-labelled ligand displacement, Serotoninergic 5-HT6. How it is done:
as §1

In experiment [7] the target is T1, Serotoninergic 5-HT1A (Homo sapiens, UniProt P08908).
T1 sequence (P08908 1-422): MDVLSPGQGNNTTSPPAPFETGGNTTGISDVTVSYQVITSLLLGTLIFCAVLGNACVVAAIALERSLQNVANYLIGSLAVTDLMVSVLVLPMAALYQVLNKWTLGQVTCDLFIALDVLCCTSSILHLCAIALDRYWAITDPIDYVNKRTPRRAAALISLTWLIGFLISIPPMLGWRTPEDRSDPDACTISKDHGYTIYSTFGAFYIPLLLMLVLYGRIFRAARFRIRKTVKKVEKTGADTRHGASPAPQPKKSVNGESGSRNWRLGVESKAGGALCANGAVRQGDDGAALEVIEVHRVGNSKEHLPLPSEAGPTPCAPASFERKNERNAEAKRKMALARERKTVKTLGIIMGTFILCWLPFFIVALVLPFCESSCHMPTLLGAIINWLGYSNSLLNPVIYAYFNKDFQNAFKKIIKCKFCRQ
Put plainly: competitive radioligand binding, Serotoninergic 5-HT1A. Particulars: compound concentration of 1 μM; read-out: radio-labelled ligand displacement, Serotoninergic 5-HT1A. The procedure: as §1

In experiment [8] the target is Serotoninergic 5-HT7 (Homo sapiens, UniProt P34969). Put plainly: competitive radioligand binding, Serotoninergic 5-HT7. Particulars: compound concentration of 1 μM; read-out: radio-labelled ligand displacement, Serotoninergic 5-HT7. The procedure: as §1
Sequence of Serotoninergic 5-HT7 (P34969 whole entry): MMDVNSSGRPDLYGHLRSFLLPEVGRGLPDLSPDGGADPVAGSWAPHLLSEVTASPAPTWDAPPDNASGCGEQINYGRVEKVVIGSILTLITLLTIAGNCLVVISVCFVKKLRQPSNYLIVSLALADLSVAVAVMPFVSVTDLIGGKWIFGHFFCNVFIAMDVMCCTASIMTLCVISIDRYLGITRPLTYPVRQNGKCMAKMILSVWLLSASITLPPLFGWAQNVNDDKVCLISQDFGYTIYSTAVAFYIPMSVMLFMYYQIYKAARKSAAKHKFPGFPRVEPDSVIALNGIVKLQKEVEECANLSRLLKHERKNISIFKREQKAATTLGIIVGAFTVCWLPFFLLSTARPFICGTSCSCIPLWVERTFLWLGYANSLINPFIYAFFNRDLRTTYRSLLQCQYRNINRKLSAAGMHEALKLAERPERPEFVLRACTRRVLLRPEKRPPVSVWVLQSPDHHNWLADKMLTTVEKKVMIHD
In experiment [9] the target is Histaminergic H1 (Homo sapiens, UniProt P35367). Put plainly: competitive radioligand binding, Histaminergic H1. Conditions: compound concentration of 1 μM; read-out: radio-labelled ligand displacement, Histaminergic H1. The procedure: as §1
Sequence of Histaminergic H1 (P35367 whole entry): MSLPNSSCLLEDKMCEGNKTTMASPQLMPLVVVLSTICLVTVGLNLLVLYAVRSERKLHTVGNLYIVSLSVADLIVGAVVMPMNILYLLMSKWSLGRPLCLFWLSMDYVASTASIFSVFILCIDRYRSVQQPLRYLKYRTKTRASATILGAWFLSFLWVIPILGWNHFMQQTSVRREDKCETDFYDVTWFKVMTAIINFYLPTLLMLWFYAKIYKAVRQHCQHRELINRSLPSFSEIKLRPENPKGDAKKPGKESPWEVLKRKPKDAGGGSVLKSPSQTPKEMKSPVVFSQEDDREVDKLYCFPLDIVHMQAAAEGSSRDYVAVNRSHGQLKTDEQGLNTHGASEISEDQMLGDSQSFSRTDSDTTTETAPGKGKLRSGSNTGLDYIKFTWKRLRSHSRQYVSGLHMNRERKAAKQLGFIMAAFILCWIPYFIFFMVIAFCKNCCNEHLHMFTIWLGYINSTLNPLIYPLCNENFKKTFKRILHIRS
For experiment [10], the system named is male mice of BALB/c line. The experiment in a line: Mice behavior in tail suspension test. The class given is in vivo. Conditions: after 4 days injections in dose of 0.1 mg/kg, 6 minutes. The procedure: Antidepressant action of compounds of the general formula 1 in test “Mice behavior in tail suspension test”. Experiments were carried out in aged male mice of BALB/c line weighing 20-24 g. Mice were suspended by tail with scotch tape on holder over horizontal surface at height of about 40 cm, and for 6 minutes of total duration of complete immobility episodes which is considered to be a measure of depressively-like state was registered. Automated computerized detection of motion with videosystem and Any-maze program were used in test.

Experiment [11] concerns male mice of BALB/c line. Put plainly: Passive Avoidance of mice in Shuttle Chamber (memory disturbed by Scopolamine). The class given is in vivo. Particulars: intraperitoneally 30 minutes before training, in combination with Scopolamine. How it is done: Nootropic action (enhancement of memory disturbed by Scopolamine) of compounds of the general formula 1 in test “Passive Avoidance of mice in Shuttle Chamber”. Shuttle chamber (Ugo Basile, Italy) consisted of two sections was used. […] Sections were connected through a hole which could be overlapped by vertical door. The floor was made of transverse metal bars on which DC current impulses could be fed. Experiments were carried out in aged male mice of BALB/c line weighing 20-24 g. On the first day of experiment 30 minutes before training mice were injected intraperitoneally with physiological solution, (0.3 mg/kg) or Scopolamine in combination with compound 3.6(1).HCl, or Scopolamine in combination with compound 2.5(1).HCl. Each group consisted of 8 animals. Animals were placed in light section, and latent period of the first entry into the dark chamber was registered. Then the vertical door was closed and the animal was punished by 0.6 mA DC current for 3 seconds. After that the animal was taken back to its home cage. In 22-24 hours the same animal was placed again in light section of shuttle chamber and latent period of its first entry into dark section, total time of its stay in light section and number of entries into dark section was registered. Each monitoring lasted for 5 minutes. […]

Experiment [12] has as its system male mice of BALB/c line. Put plainly: Porsolt's Forced Swim Test. The experiment is classed as in vivo. Conditions: after 4 days injections in dose 1 mg/kg, last 5 minutes of the test. How it is done:
Antidepressant action of antagonists of the general formula 1 in Porsolt's Forced Swim Test. Test apparatus represented a plastic vessel filled with water up to height of 18 cm at 20-22° C. Experiments were carried out in aged male mice of BALB/c line weighing 20-24 g.
Mice were placed in water and for 15 minutes duration of immobile hanging in water so called behavioural despaire, which is considered to be a measure of depressively-like state, was registered. The last 5 minutes of the test were used for analysis. Automated computerized detection of motion with videosystem and Any-maze program were used in the test.

Experiment [13] concerns Mice of SHK line. Put plainly: Prepulse inhibition of startle response in mice (Apomorphine). Conditions: 1 mg/kg, subcutaneously 60 minutes before the test.

Sequence of Serotoninergic 5-HT6 (P50406 whole entry): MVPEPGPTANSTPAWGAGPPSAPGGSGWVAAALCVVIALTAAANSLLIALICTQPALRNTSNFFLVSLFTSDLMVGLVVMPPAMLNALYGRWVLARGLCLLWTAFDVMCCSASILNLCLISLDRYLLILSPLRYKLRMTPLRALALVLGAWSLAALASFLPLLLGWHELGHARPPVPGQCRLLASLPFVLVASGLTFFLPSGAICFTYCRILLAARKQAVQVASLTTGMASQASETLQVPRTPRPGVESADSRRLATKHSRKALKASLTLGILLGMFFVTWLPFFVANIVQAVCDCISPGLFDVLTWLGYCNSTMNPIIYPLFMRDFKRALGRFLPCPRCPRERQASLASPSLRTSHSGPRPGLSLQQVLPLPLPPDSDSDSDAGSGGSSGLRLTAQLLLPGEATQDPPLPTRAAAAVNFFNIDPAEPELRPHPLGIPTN
Sequence of Dopaminergic D2S (P14416 1-414 isoform P14416-2): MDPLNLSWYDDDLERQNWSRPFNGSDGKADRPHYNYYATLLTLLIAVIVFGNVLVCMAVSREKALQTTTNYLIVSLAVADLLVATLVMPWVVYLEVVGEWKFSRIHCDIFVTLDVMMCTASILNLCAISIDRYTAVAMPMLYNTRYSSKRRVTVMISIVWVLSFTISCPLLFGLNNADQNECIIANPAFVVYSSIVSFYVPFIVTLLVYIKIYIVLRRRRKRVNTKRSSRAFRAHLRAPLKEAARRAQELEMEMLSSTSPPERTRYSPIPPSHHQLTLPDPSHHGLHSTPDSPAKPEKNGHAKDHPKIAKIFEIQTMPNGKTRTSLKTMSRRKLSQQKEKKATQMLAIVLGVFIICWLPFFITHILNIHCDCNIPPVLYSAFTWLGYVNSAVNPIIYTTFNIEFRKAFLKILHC
Sequence of Serotoninergic 5-HT2B (P41595 whole entry): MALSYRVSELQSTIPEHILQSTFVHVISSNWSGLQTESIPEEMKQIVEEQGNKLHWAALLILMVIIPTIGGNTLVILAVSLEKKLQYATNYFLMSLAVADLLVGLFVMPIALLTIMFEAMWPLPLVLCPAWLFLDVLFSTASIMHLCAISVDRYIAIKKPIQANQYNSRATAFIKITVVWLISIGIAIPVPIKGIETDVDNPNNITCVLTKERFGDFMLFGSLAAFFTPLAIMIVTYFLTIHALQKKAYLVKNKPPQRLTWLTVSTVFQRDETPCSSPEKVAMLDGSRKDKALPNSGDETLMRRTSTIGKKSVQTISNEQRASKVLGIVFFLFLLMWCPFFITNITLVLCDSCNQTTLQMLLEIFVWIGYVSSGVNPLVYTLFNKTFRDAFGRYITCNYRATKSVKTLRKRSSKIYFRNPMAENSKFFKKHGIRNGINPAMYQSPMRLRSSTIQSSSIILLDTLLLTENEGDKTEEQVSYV
Sequence of Histaminergic H2 (P25021 whole entry): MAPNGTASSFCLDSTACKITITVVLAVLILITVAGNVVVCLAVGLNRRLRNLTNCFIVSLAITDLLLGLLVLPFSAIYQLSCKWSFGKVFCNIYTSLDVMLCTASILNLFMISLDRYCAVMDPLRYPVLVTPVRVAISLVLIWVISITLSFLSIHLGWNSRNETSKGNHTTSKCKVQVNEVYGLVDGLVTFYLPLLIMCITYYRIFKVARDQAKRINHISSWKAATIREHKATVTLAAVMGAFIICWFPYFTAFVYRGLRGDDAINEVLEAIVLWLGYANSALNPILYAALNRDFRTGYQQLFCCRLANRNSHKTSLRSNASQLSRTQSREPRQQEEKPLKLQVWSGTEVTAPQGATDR

In the case of `Cc1cc2c(s1)c1c(n2-c2cccc(F)c2)CCN(C)C1` [2.4(3)•HCl, 2,7-dimethyl-4-(3-fluorophenyl)-5,6,7,8-tetrahydro-4H-thieno[2′,3′:4,5]pyrrolo[3,2-c]pyridine], the radio-labelled ligand displacement, Adrenergic α1B in experiment [1] worked out at 10%. The inhibition at 1 µM was found to be 29% in experiment [2]; 3% in experiment [3]; 39% in [5] (compound concentration of 1 μM); 26% in experiment [6]; 3% in experiment [7]; 43% in [8]. The inhibition at 1 µM in [9] is 38%. Besides, the “grade of the activity profile (poor / satisfactory / good)” value (from here on “grade … (poor / satisfactory / good)”) in [4] is recorded as “poor”.
`Cc1cc2c(s1)c1c(n2Cc2ccccc2)CCN(C)C1.Cl` [2.5(1)•HCl, 4-Benzyl-2,7-dimethyl-5,6,7,8-tetrahydro-4H-thieno[2′,3′:4,5]pyrrolo[3,2-c]pyridine hydrochloride]: in experiment [10], the “Antidepressant action: duration of complete immobility” value is “decrease the duration of complete immobility of mice”. The same molecule yielded a radio-labelled ligand displacement, Adrenergic α1B in [1] of 10%. Moreover, the inhibition at 1 µM in [2] is 44%; in [3] it was -6%; in [5], 91%; in [6], 55%; in experiment [7], 3%; in experiment [8], 92%. In addition, the inhibition at 1 µM in experiment [9] amounted to 96%. In addition, in experiment [11], the “Nootropic action: training disturbed by Scopolamine” value is listed as “improve training disturbed by Scopolamine”. The “Antidepressant action: duration of immobile hanging in water” value in experiment [12] is “decrease this index”. Moreover, the “Antipsychotic activity: disturbance of prepulse inhibition of startle caused by Apomorphine” value in [13] is given as “prevented disturbance of prepulse inhibition of startle caused by Apomorphine”.
As for `Cc1ccc(Cn2c3c(c4sc(Cl)cc42)C(C)N(C)C(C)C3)cn1` (stereo not shown) [2.5(4)•HCl, 4-(6-methylpyridin-3-ylmethyl)-6,7,8-trimethyl-2-chloro-5,6,7,8-tetrahydro-4H-thieno[2′,3′:4,5]pyrrolo[3,2-c]pyridine], the radio-labelled ligand displacement, Adrenergic α1B in [1] turned out to be 38%. Moreover, the inhibition at 1 µM is 83% in experiment [2]; 17% in [3]; 78% in [5] (compound concentration of 1 μM); 85% in experiment [6]; 35% in [7]; 87% in experiment [8]. Also, in experiment [9], the inhibition at 1 µM was found to be 70%. Besides, the “grade … (poor / satisfactory / good)” value in experiment [4] was “satisfactory”.
In the case of `Cc1cc2c(s1)c1c(n2CCc2ccccc2)CCN(C)C1.Cl` [2.6(1)•HCl, 2,7-Dimethyl-4-(2-phenylethyl)-5,6,7,8-tetrahydro-4H-thieno[2′,3′:4,5]pyrrolo[3,2-c]pyridine hydrochloride], the radio-labelled ligand displacement, Adrenergic α1B in [1] stood at 90%. For the same molecule, the inhibition at 1 µM was 56% in [2]; 73% in [3]; 79% in experiment [5]; 98% in [6]; 16% in experiment [7]; 98% in experiment [8]. Further, in [9], the inhibition at 1 µM stood at 97%.
For `CC1Cc2c(c3sc(Cl)cc3n2C#Cc2cccc(F)c2)C(C)N1C` (stereo not shown) [2.10(3)•HCl, 6,7,8-trimethyl-4-(3-fluorophenyl)ethynyl-2-chloro-5,6,7,8-tetrahydro-4H-thieno[2′,3′:4,5]pyrrolo[3,2-c]pyridine], the radio-labelled ligand displacement, Adrenergic α1B in experiment [1] was found to be 5%. Besides, the inhibition at 1 µM was 33% in experiment [2]; 31% in [3]; 39% in [5] (compound concentration of 1 μM); 35% in experiment [6]; 6% in experiment [7]; 33% in [8]. The inhibition at 1 µM in experiment [9] turned out to be 65%. In experiment [4], the “grade … (poor / satisfactory / good)” value is on record as “poor”.
In turn, `Cc1ccc(CCCn2c3c(c4scc(Cl)c42)CN(C)CC3)cn1` [2.12(5)•HCl, 7-methyl-4-[3-(6-methylpyridin-3-yl)propyl]-3-chloro-5,6,7,8-tetrahydro-4H-thieno[2′,3′:4,5]pyrrolo[3,2-c]pyridine] registered a radio-labelled ligand displacement, Adrenergic α1B in experiment [1] of 97%. Further, the inhibition at 1 µM stood at 96% in experiment [2]; 89% in experiment [3]; 95% in experiment [5] (compound concentration of 1 μM); 100% in experiment [6]; 57% in experiment [7]; 99% in experiment [8]. In [9], the inhibition at 1 µM was 99%. The “grade … (poor / satisfactory / good)” value in experiment [4] was “good”.
In experiment [1], `Cc1cc2c3c(n(Cc4ccccc4)c2s1)CCN(C)C3.Cl` [3.5(1)•HCl, 8-Benzyl-2,5-dimethyl-5,6,7,8-tetrahydro-4H-thieno[3′,2′:4,5]pyrrolo[3,2-c]pyridine hydrochloride] had a radio-labelled ligand displacement, Adrenergic α1B of 57%. The inhibition at 1 µM in experiment [2] was 91%; in experiment [3] it was 23%; in experiment [5] it was 90%; in experiment [6] it was 85%; in experiment [7] it was 42%; in experiment [8] it was 95%. The inhibition at 1 µM in experiment [9] turned out to be 96%.
`Cc1cc2c3c(n(Cc4ccccc4)c2s1)CC1CCC3N1C` (stereo not shown) [3.13(1)•HCl, 9-benzyl-2,10-dimethyl-4,5,6,7,8,9-hexahydro-4,7-epiminocyclohepta[b]thieno[3,2-d]pyrrole] registered a radio-labelled ligand displacement, Adrenergic α1B in [1] of 69%. The inhibition at 1 µM in [2] is 70%; in experiment [3] it was 25%; in experiment [5], 90%; in [6], 67%; in [7] it was 19%; in [8], 79%. Moreover, the inhibition at 1 µM in experiment [9] turned out to be 88%. Further, the “grade … (poor / satisfactory / good)” value in experiment [4] is on record as “satisfactory”.
